Results as given in US20020065314A1, “COMPOSITIONS AND METHOD FOR STIMULATING HAIR GROWTH” (priority 1995, published 2002).
“Also recorded” adds a separate entry of the source. Read-outs that look alike come from different tables or passages of the source.

Columns and labels:
[1] = test system: C57BL/KsJ db/+ mice; assay: Inhibition of n-butyl cyanoacrylate-stimulated hair growth by neutralizing antibodies; assay type: in vivo, mouse; conditions: day 14, sites 2 and 3, 10 μl per site
Experimental: Forty mice of strain C57BL/KsJ db/+ eight weeks old were divided into four equal groups (A-D). The dorsal aspect of the mice were shaved, and five different sites on the dorsum were designated (sites 1-5). Each site was 5-6 mm^2. Animals of group A were treated topically at sites 1, 2 & 3 with n-butyl cyanoacrylate only (10 μl per site) formulated as Nexaband^R Liquid. Animals of group B were treated topically at sites 1, 2 & 3 with the same dose of n-butyl cyanoacrylate, but sites 1 and 3 subsequently received subcutaneous injections of either anti-TGF-β1 neutralizing antibody (1 μg per g of body weight) in PBS/0.1% BSA (at site 1), or PBS/0.1% BSA as a matched control (at site 3). Group C animals were treated as for Group B except that anti-EGF neutralizing antibody was injected at site 1 instead of anti-TGF-pi. […] Group D animals were shaved only and received no treatment.
Hair regeneration was documented by macroscopic observations supported by serial photographs of treatment sites. Histological observations were made on skin biopsies taken at frequent intervals ranging from 6 hours to 21 days post-treatment.

[2] = test system: C57BL/KsJ db/+ and C57BL/KsJ db/db mice; assay: Effect of isobutyl cyanoacrylate on hair growth, topical; assay type: in vivo, mouse; conditions: C57BL/KsJ +/+, 10 μl cm^−2 topical
[3] = test system: C57BL/KsJ db/+ mice; conditions: for hair growth on dorsum (photograph): 31 days post application
Experimental: The induction of hair loss following treatment with certain anticancer drugs, such as cyclophosphamide or doxorubicin, is well documented (A. Tierney & J. Taylor (1991) Nurs. Stand 5:29-31; R. R. Love, et al. (1989) Cancer 63:604-612; B. W. Cline (1984) Cancer Nurs. 7:221-228). The following experiment was performed to determine the effect of n-butyl cyanoacrylate on hair regrowth in mice pre-treated with cyclophosphamide or doxorubicin. Twenty mice of strain C57BL/KsJ db/+ were peritoneally injected with either cyclophosphamide in PBS (20 mg per kilogram of body weight) or Doxorubicin in PBS (2 mg per kilogram of body weight) for 10 consecutive days. Then a single 10 μl dose of n-butyl cyanoacrylate was applied topically to an area of the shaved dorsum of each animal. Control mice, which were injected with PBS alone, were treated similarly. The effects of hair regrowth were determined both by phototrichogram (macroscopic observation using photography) and by folliculogram (microscopic observation of histological changes in the treated and untreated skin).

[4] = test system: NIH/3T3 fibroblasts; assay: Fibroblast cell proliferation assay with extracts of treated skin; assay type: cell-based
Experimental: A single topical application of 20 mg of n-butyl cyanoacrylate was made to an area of shaved skin on the dorsum of strain C57BL/KsJ db/+ mice. At days 10 and 20 post-treatment, skin samples were excised from treated areas. Skin tissue was frozen in dry ice, minced, homogenized in ice-cold PBS, and centrifuged at 15,000 g for 30 minutes at 4° C. The protein concentration of supernatants was adjusted to 1.0 mg/ml by the BioRad assay procedure (BioRad Laboratories, Richmond, Calif.). Skin samples from untreated areas of the same strain were harvested and processed identically. Mouse serum albumin was prepared at a concentration of 1.0 mg/ml in PBS as a control. An aliquot of each supernatant extract was fractionated according to size with a nominal 30 kilo Dalton (kDa) cutoff, and the low molecular weight fraction (≦30 kDa) was included in the fibroblast cell proliferation assay, as follows.
The supernatant extracts from treated and untreated skin samples, and mouse serum albumin control, were added to a quartet of wells in a 96 well plate, and 2-fold serially diluted 11 times. NIH/3T3 fibroblasts (ex American Type Culture Collection, Rockville, Md.) were harvested at about 80% confluence, seeded into each well at a density of 5,000 cells per well, and supplemented with serum-free assay medium (QBSF 56, Quality Biological Inc., Gaithersburg, Md.). Cell proliferation was determined according to the protocol of the CellTitre 96 Non-Radioactive Cell Proliferation Assay (Promega, Madison, Wis.).

[5] = test system: mice and rats
[6] = test system: C57BL/KsJ db/+ mice; assay: Subdermal application by subcutaneous injection; assay type: in vivo, mouse
Experimental: In another example, 20 μl of n-butyl cyanoacrylate was applied subdermally by subcutaneous injection to a group of C57BL/KsJ db/+ mice.

[7] = test system: Sprague Dawley rats; assay: Single topical application, hair growth in rats; assay type: in vivo, rat
Description: At the gross level, the hair growth in the shaved treated area occurs at 8-12 days and reaches full length at about 14-20 days post treatment, however, the remainder of the shaved untreated area remains hairless and the hair follicles small (in telogen (resting) phase)(5A-5B). The response of hair growth to the n-butyl cyanoacrylate stimulus is very similar in 6 other strains of mice (C57BL/KsJ +/+, C57BL/KsJ db/db, Balb/cBYj +/+, Balb/cBYj nu/+, HRS/J hr/+, and RHJ/LeJ hr^rh-j/+) (FIGS. 6A-6C) and Sprague Dawley rats (FIGS. 7A-7B). The hair growth rate in the fastest growth period (at about 10-15 days post treatment) reaches 1 mm per day. This is entirely consistent with the microscopically observed stimulation of hair follicles following treatment.

SMILES: C=C(C#N)C(=O)OCCCC [n-butyl cyanoacrylate]
- stimulation of hair growth at sites treated with n-butyl cyanoacrylate alone [1]: clearly evident; also recorded: new hair growth was present
- Hair growth [2]: 3+ (high hair regeneration with an area larger than 50% of the treated area)
- time new hair remained (until sacrifice) ([3]; animals pre-treated with cyclophosphamide, after treatment): ≥ 335 days
- time of growing to full length ([3]; mice pre-treated with cyclophosphamide, doxorubicin and PBS, post treatment): 15 to 18 days
- beginning of hair regrowth in treated areas ([3]; mice pre-treated with cyclophosphamide, doxorubicin and PBS, single 10 μl topical dose, post treatment): 8 to 11 days
- hair growth on dorsum (photograph) ([3]; pre-treated with cyclophosphamide): profound growth of new unpigmented gray hairs in the treated area
- hair growth on dorsum (photograph) ([3]; pre-treated with doxorubicin): profound growth of hair with normal pigmentation in the treated area
- activity of extract from skin harvested at 20 days post-treatment vs 10 days [4]: more active than the extract from skin harvested at 10 days post-treatment
- activity of protein extracts of treated skin vs extract of untreated skin ([4]; skin treated topically with 20 mg, harvested days 10 and 20): more active in stimulating proliferation of NIH/3T3 cells
- activity of low molecular weight fraction (30 KDa or less) of skin extract ([4]; treated and untreated skin): no discernible effect on cell proliferation; also recorded: filtration step removes stimulation
- reproducibility of hair growth induced ([5]; 10 mg/10 μl cm^−2, more than 700 normal adult mice and rats, and 80 diabetic (db/db) animals): 100%
- side effect, toxic effect or tumor-like tissue formation after the treatment ([5]; in vivo): No any side effect or toxic effect or tumor-like tissue formation after the treatment has been observed except for a mild inflammation shortly after application
- hair growth in normal intact skin, in skin of animals pre-treated with anticancer drugs, and at edges of wounds ([5]; two species (rat and mouse), seven strains of mouse): stimulate hair growth
- histology after subcutaneous injection ([6]; 68 days after subcutaneous injection): development of new hair follicles in the treated site
- histology after subcutaneous injection vs untreated site ([6]; subcutaneous injection, 20 μl): induces de novo hair follicle formation and the thickening of full-thickness skin
- histology, hair follicle density treated vs untreated area ([7]; Sprague Dawley rat): much higher density of hair follicles in treated area
- hair growth on dorsum (photograph) ([7]; Sprague Dawley rat, 23 days post application): hair growth appears as a rectangle pattern
- time over which no shedding of induced hair has been found ([7]; rats, post treatment): over 210 days
